In a melting point compilation (Tetko et al.; mined from patent text by program, amines drawn as free bases though some values may be those of a salt):
Where a name gives a salt, the structure may show the parent alone. Residues, ends and D or L forms follow the SMILES beside them. *: point of attachment. Tfa = O=C(C(F)(F)F)*

melting point [°C] | Structure (SMILES)
123 to 126 | Cc1c(SCCSCc2ccncc2)ccnc1CNc1cnc2ccccc2c1
224 to 226 | COc1ncccc1Nc1c(NC(NC(=O)c2cccc(C)c2)C(C)(C)C)c(=O)c1=O (centres undefined)
202 to 204 | Cc1cccc(-c2nc(N)sc2-c2ccc(F)c(-c3ccc(S(C)(=O)=O)cc3)c2)n1
136 to 138 | CCOC(=O)CCc1cccc(C2COc3c(C)c(C)c(NC(=O)CC(C)(C)C)c(C)c32)c1 (centres undefined)
55 | CC1CC=CC2C(=O)OC(=O)C12 (centres undefined)
182 to 184 | CC(C#N)c1nc(O)n[nH]1 (centres undefined)
185 to 187 | Cc1nnc2ccc(-c3cccc(C(F)(F)F)c3)cn12
70 to 71 | Cc1nnc(S(C)(=O)=O)o1
> 250 | COc1cc2[nH]cc(C(=O)Nc3cccnc3)c2cc1Br
130 | CCCCN1C(=O)NC(CCC(=O)O)C1=O (centres undefined)
110 | O=C1CC2(CCCC2)C(O)C(=O)N1CCCCN1CCN(c2ncccn2)CC1 (centres undefined)
150 to 151 | COC(=O)C(Cc1ccccc1)NC(=O)C(CC(=O)O)NC(=O)C(F)(F)F (stereo not drawn) (Tfa-Asp-Phe-OMe; configuration not given here)
152 to 153 | O=c1oc(-c2ccccc2)cc(O)c1S(=O)(=O)Cc1ccccc1
239 to 240 | Cn1c(=O)c(-c2c(Cl)cccc2Cl)cc2cnc(N)cc21
196 to 198 | CSc1nc(O)c(C#N)n1C(C)C
215 to 220 | COc1cc2c(NC3=CC(=O)C(Cl)=CC3=O)ncnc2cc1OCC1CCCCO1 (centres undefined)
67 to 69 | CCOc1c(CS(=O)(=O)C2=NOC(C)(CCl)C2)c(C(F)(F)F)nn1CC (centres undefined)
156 to 158 | O=C(O)Cc1cccc(Cc2nc3c(F)c(F)cc(F)c3s2)c1Cl
136 to 137 | CO[C@]1(c2cc(F)cc(Sc3ccc4c(c3)CC/C4=N\O)c2)CCO[C@@H]1C (racemic)
200 to 204 | CCCCCCCC(=O)Nc1ccc(O)c(C(=O)O)c1
198 to 199 | CCC#C[C@]1(C(F)(F)F)O[C@@H](c2ccccc2)C(=O)Nc2ccc(Cl)cc21 (relative stereo)
214 to 217 | CCOC(=O)c1sc(-n2ccc(OCc3ccc(F)cc3)cc2=O)nc1C
70 to 72 | CC[C@@H](c1ccccc1)N(Cc1ccc(C(=O)OC)cc1)S(=O)(=O)c1ccc(C(F)(F)F)cc1
183 | NCCCC(N)(C(=O)O)C(F)F (centres undefined)

melting point [°C] | Structure (SMILES)
141 to 144 | CNC(=S)C1=CC(C)(CF)Oc2ccc([N+](=O)[O-])cc21 (centres undefined)
145 to 147 | NS(=O)(=O)c1ccc(S[C@H]2CC[C@H](O)CC2)s1
79 to 81 | O=C(C=C(c1ccccc1Cl)n1cncn1)c1ccccc1
94 to 95 | Cc1c(C)c2c(c(C)c1N)CC(C)(CN1CCN(c3ccccc3)CC1)O2 (centres undefined)
110 | CS(=O)(=O)Oc1ccccc1CC(=O)O
258 to 260 | O=C1c2ccccc2C(=O)N1CC(=O)N1c2ccccc2N(Cc2ccc3ccccc3n2)C(=O)[C@H]2CCC[C@H]21 (relative stereo)
158 to 159 | Cc1oc(-c2ccccc2)nc1COc1ccc(CCC2OC(=O)NC2=O)cc1 (centres undefined)
120 | NC(=O)COc1ccc(OCc2ccccc2)cc1OCc1ccccc1
106 to 110 | O=C(O)Cc1cc2c(s1)-c1ccccc1SC2
113 | N#CCCOC(=O)NC(=O)C(c1ccccc1)c1ccccc1
78 to 79 | CCc1ccc(OC)c(-c2cc(C(C)(C)C)c(O)c(C(C)(C)C)c2)c1
181 to 182 | CCCCc1nc(Cl)c(Cl)n1Cc1ccc(-n2cccc2C(=O)O)cc1
115 to 116 | O=S(=O)(Nc1ccc(Cl)c(F)c1)c1ccccc1
109 to 110 | CC1CCC(NS(N)(=O)=O)CC1 (centres undefined)
135 to 138 | CCCCOCCOc1ccc(-c2ccc3c(c2)C=C(C(=O)Nc2ccc(S(=O)Cc4ncnn4C)cc2)CCN3CC(C)C)cc1 (centres undefined)
158 to 159 | CCOC(=O)/C=C/c1c(-c2ccccc2)c2c3ccccc3cnn2c1C(C)C
70 | Cc1c(F)cccc1Cc1c(-c2ccccc2)c2ccccn2c1C(=O)N1CCN(C(=O)OC(C)(C)C)[C@@H](CCO[Si](C)(C)C(C)(C)C)C1
122 to 124 | c1ccc(CSc2nc3nc(-c4ccccc4)cc(-c4ccccc4)n3n2)cc1
128 to 132 | CCCCC[C@@H](CNC(=O)Nc1c(N2CCOCC2)ncnc1N1CCOCC1)c1cccc2c1OCO2
212 to 215 | Nc1ccc2c(c1)NC(=O)c1cscc1N2
251 to 253 | N#Cc1cnc2cc(C#CCO)ccc2c1Nc1ccc(Cl)cc1Cl
117 | Cc1cc(OCCc2nc(-c3ccccc3)oc2C)ccc1OC(C)(C)C(=O)O
76.5 to 78 | CC(C)C(=O)CC(=O)c1ccc(C(=O)c2ccccc2)cc1
94 to 96 | CN(Cc1cc2c3c(c1)c(=O)c(C(=O)NCc1ccc(F)cc1)cn3CC(=O)N2C)C[C@@H](O)c1cc2ccccc2o1

melting point [°C] | Structure (SMILES)
165 to 167 | Cc1noc(C)c1CN1C(=O)C2(COc3cc4c(cc32)OCO4)c2ccccc21 (centres undefined)
99 to 100 | O=C1CCCc2cc(-c3ccccc3)ccc21
94 to 96 | COc1ccc(CC(=O)O)cc1C(C)C
185 to 187 | CC(C)N(Cc1c(-c2ccccc2)sc(N)c1C(=O)c1ccc(Cl)cc1)C(C)C
230 to 232 | N#Cc1ccc(Oc2ccc(-c3ccc(Oc4ccc(C#N)c(C#N)c4)cc3)cc2)cc1C#N
142 to 143 | CCCCc1oc2ccccc2c1C(=O)NCc1ccc2cc(OCC#N)ccc2c1
134 to 136 | O=C1c2ccc(N3CCCCC3)c3cc(Br)cc(c23)C(=O)N1O
134 to 136 | O=C1c2ccc(Cl)cc2C(=O)C(O)(O)C1(O)O
199 to 200 | CS(=O)(=O)Nc1cc2occ(NS(C)(=O)=O)c(=O)c2cc1Oc1ccccc1
78 to 81 | O=C1CSCc2nc(-c3ccccc3)ccc21
187 to 189 | Cc1ccc(S(=O)(=O)Nc2nc(-c3cccc([N+](=O)[O-])c3)cs2)cc1
192 to 193 | CS(=O)(=O)N1CCN(c2ccc(N)cc2)CC1
94 to 117 | CCCCCCCCCCCCCCCCCCOc1ccc(C(=O)O)cc1OCCCCCCCCCCCCCCCCCC
158 | CC(=O)c1nn(-c2c(Cl)cc(C(F)(F)F)cc2Cl)c(N)c1S(=O)(=O)c1ccc(Cl)cc1
99 to 101 | COc1ccccc1N1CCc2c(Cl)nc3c(OC)cccc3c21
201 | COC(=N)c1sc2ccccc2c1O
89 to 95 | Cc1ncncc1C(=O)Nc1ccc(-n2nc(C3CC3)cc2C2CC2)cc1
217 to 219 | COc1cc(Nc2c(C#N)cnc3cc(Cl)c([N+](=O)[O-])cc23)c(C)cc1Cl
176 to 177 | Cc1c2c(c(Cc3ccc(C(C)C)cc3)c(C)c1NC(=O)NCCO)OCC2
127 to 129 | NC(=NCC(F)(F)F)Nc1ccnc(SCCCNC(=O)c2ccco2)n1
121 | O=C1Nc2cc(CN3CCN(c4ccc(C(=O)N5CCCC5)cc4)CC3)cnc2N2CCC[C@@H]12
233 to 235 | CCOc1cc2c(c3c1OC(C)(C)C3)C(c1cccc(C(=O)NC)c1)=NC(C)(C)C2=O
175 to 177 | COc1ccccc1C1OC(=O)NC1=O (centres undefined)
137 to 138 | Cc1nc2c3c(ccn2c1C)[C@@](C)(O)[C@H](O)[C@@H](c1ccccc1)N3

melting point [°C] | Structure (SMILES)
237 to 238 | CCCc1c(OCc2cc(Br)c(C(=O)O)cc2OC)ccc(C(C)=O)c1O
211 to 212 | O=C(O)c1cn(C2CC2)c(-c2ccc3c(c2)OCO3)cc1=O
159 to 160 | CCCOc1cnc(CO)cc1O
149 to 156 | COc1ccc(C2(C)Cc3cc(O)c(Cl)c(Cl)c3C2=O)cc1 (centres undefined)
95 to 97 | CC1=C(c2ccc(C(=O)N3Cc4cccn4Cc4ccccc43)cc2)CCCC1=O
171 to 172 | O=C1CC(NCCCOc2cccc(CN3CCCCC3)c2)=Nc2ccccc21
251 | c1ccc(COc2ccc(-c3cc4ccccc4[nH]3)cc2)cc1
120 to 125 | COC1(F)C=CC=C(c2cc(CBr)c(=O)n(Cc3ccc(F)cc3)n2)C1 (centres undefined)
167 to 169 | CN1CCN(c2ccc(S(=O)(=O)Oc3cccc([N+](=O)[O-])c3)cc2)C1=O
335 to 337 | COc1ccccc1-n1c(=O)[nH]c2c(C(N)=O)nc(-c3cccc4ncccc34)nc21
129 to 131 | CCc1cc(C(N)=O)nn1CC
118 to 119 | CCCCn1cnc2c(SCc3ccc4nsc(Br)c4c3)ncnc21
168 to 169 | CCOC(=O)C(=O)NNc1ccc(NC(=S)NC)cc1
160 to 161 | CCON=C(CC)C1=C(O)CC(c2ccc(NC(=O)OC)cc2)CC1=O (centres undefined)
179 to 181 | COc1c(C2CCN(CCCCNC(=O)c3ccc(-c4ccc(C#N)nc4)cc3)CC2)ccc2c1CCCC2
166 to 168 | O=S(=O)(c1ccccc1)N1CC2CCC(C1)O2
206 to 207 | COc1ccc([N+](=O)[O-])c(Nc2ccccc2O)n1
76 to 78 | COC(=O)C1CC(C#N)(c2cccs2)CCC1=O (centres undefined)
84 to 86 | CCCc1c(OCC#CCCCC(=O)O)ccc(C(C)=O)c1O
110 | O=C(O)C1C(=O)Nc2ccccc2SC1c1ccc2c(c1)OCO2 (mixture of isomers)
161 to 163 | COc1cc(-c2c(C)c3cc(O)ccc3n2Cc2ccc(OCCN3CCCCC3)cc2)ccc1O
151 to 152 | CCC(C)(C)OC(=O)NC(C)(Cc1c[nH]c2ccccc12)C(=O)NCCc1ccccn1 (centres undefined)

Structure (SMILES) | melting point [°C]
O=[N+]([O-])c1ccc2[nH]cc(C3=CCNCC3F)c2c1 (centres undefined) | 205 to 207
COC(=O)Nc1nc(C)c(-c2nc3ccccc3c(=O)n2-c2ccccc2Cl)s1 | 243 to 245
CC(C)(O)CCCCCc1cccc(CCc2cc(O)cc(O)c2)c1 | 102 to 103
NC(=N[N+](=O)[O-])NCCSCc1csc(NC(N)=NCC(F)(F)Cl)n1 | 112 to 116
CCOC(=O)C1C(C=C(Br)Br)C1(C)C (centres undefined) | 110
